Assay results reported in US11186577B2, “Vasopressin receptor antagonists and products and methods related thereto” (BlackThorn Therapeutics, Inc., priority 2017, dated 2021).
Read-outs that look alike come from different tables or passages of the source.

Tests used:
[1] = target: human Arginine Vasopressin Receptor 1a (AVPR1a) (Homo sapiens (Human), UniProt P37288); assay: Vasopressin V1A receptor antagonist assay (AVP-evoked calcium, FLIPR, CHO-AVPR1a cells); assay type: cell-based
How it was run: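 CHO cells expressing human AVPR1a, Calcium-6 dye loaded 60-90 min, preincubated with compound 15 min at 37° C., then challenged with AVP at its daily-determined EC80. FLIPR fluorescence; 10-point 1:3 series from 3 μM, duplicates.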

[2] = target: human Arginine Vasopressin Receptor 1b (AVPR1b) (Homo sapiens (Human), UniProt P47901); assay: Vasopressin V1B receptor antagonist assay (AVP-evoked calcium, FLIPR, CHO-AVPR1b cells); assay type: cell-based
human Arginine Vasopressin Receptor 1b (AVPR1b), sequence (P47901 whole entry): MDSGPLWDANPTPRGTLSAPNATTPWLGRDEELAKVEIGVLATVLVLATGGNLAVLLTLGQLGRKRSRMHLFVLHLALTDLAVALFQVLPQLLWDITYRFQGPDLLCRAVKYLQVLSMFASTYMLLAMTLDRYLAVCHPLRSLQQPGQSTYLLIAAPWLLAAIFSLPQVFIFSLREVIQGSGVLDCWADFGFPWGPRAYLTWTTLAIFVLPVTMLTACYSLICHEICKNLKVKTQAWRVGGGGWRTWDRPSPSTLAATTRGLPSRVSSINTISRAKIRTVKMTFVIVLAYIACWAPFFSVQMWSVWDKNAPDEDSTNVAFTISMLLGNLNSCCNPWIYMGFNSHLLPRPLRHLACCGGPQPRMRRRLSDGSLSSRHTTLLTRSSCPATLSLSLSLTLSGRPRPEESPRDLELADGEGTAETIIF
Method: The purpose of the assay is to determine the inhibitory effect of synthesized compounds on the Vasopressin V1b receptor. The assay was performed in Chinese Hamster Ovary (CHO) cells expressing the human Arginine Vasopressin Receptor 1b (AVPR1b). Arginine Vasopressin (AVP) evokes an increase in intracellular calcium in CHO-AVPR1b cells which is measured in a fluorescence assay on the FLIPR^TETRA using calcium sensitive dyes. Test compounds were assessed for their ability to affect the magnitude of the response to AVP, with antagonists showing a concentration-dependent reduction in the AVP-mediated fluorescence.
CHO-AVPR1b cells were maintained in routine culture in T175 Flasks at 37° C., 5% CO2. The growth medium consisted of Ham's F12 media supplemented with 10% v/v fetal bovine serum, 1× non-essential amino acids, and 0.4 mg/ml Geneticin G418.
Cells were harvested from T175 flasks when they were 80-90% confluent by first washing the cell monolayer with PBS and then dissociated using trypsin 0.05%/EDTA (3 mL for a T175 Flask). The flasks were incubated at room temperature until the cells detached. To the cell suspension, 10 ml of growth media was added and the cell density determined using the Vi-Cell automated cell counter. The cells were spun at 1000 rpm for 3 minutes, then the supernatant was carefully removed and discarded. The cell pellet was re-suspended at 6.0e^5 cells/ml in growth media. 25 μL of cells in growth media was dispensed into each well (15,000 cells per well) of a poly-D-lysine coated black, clear bottomed, 384-well plate. The plates were incubated at 37° C., 5% CO2 overnight.
At the start of each assay day, the potency of AVP is assessed and an EC80 concentration determined for subsequent compound profiling. Assays were performed using a two-step addition protocol on the FLIPR^TETRA; first addition of 5 μl of control or test compound at 10× final in assay buffer with 15 min incubation at 37° C., 5% CO2 followed by 10 μl of AVP at 6× final concentration in assay buffer. Changes in fluorescence were monitored for 3 min after both additions on the FLIPR^TETRA using 470-495 nm excitation and 515-575 nm emission wavelengths. The assay buffer consisted of HBSS (+Ca/+Mg) supplemented with 20 mM HEPES, and for the preparation of the AVP agonist only, 0.1% w/v bovine serum albumin. The assay was initiated by the removal of growth media from the cells and replacement with 45 μl of Calcium-6 dye (Molecular Devices) prepared at 1× in assay buffer. Cells were loaded with dye for 60-90 min at 37° C., 5% CO2 before initiation of the FLIPR^TETRA protocol. […] For compound profiling, test compounds were first serially diluted in DMSO (10-point curve, 1:3 dilutions) then diluted 33.3-fold in assay buffer prior to addition to the dye loaded cells on the FLIPR^TETRA. At the end of the incubation period 10 μl of AVP in assay buffer containing 0.1% BSA was added at the previously determined EC80 concentration.
In-plate controls for the assay include a Nelivaptan concentration-response curve as the reference V1b antagonist and an AVP concentration-response curve to confirm the reproducibility of the EC80 used for the compound challenge.

human Arginine Vasopressin Receptor 1a (AVPR1a), sequence (P37288 whole entry): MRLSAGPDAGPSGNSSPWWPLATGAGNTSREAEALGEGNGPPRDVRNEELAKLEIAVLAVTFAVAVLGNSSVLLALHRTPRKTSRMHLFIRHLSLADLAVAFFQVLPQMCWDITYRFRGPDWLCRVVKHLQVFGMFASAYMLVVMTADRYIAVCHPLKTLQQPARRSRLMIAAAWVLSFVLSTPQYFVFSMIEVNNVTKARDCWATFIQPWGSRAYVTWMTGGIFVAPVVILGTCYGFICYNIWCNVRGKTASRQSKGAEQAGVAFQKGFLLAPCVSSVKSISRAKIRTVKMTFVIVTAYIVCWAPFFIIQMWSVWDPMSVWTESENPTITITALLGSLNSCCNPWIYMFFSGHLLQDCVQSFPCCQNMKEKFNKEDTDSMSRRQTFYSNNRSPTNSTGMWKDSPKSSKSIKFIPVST

Row | IC50 ([1]; in vitro antagonist assay, reference compounds, read-out: V1A IC50) [nM] | IC50 ([2]; in vitro antagonist assay, reference compounds) [nM] | SMILES | IC50 ([1]; read-out: V1a IC50) [nM] | IC50 [2] [nM]
1 |  |  | CC(=O)N1Cc2cc(Cl)ccc2-n2c(nnc2C2CC3(C2)CN(c2ccc(F)cn2)C3)C1 [compound 64] | < 100 | > 1000
2 |  |  | CC1c2nnc(C3CC4(C3)CN(c3ncccn3)C4)n2-c2ccc(Cl)cc2CN1C(=O)OC1CC1 (centres unmarked) [compound 171] | < 100 | > 1000
3 |  |  | CC1c2nnc(C3CC4(C3)CN(c3ncccn3)C4)n2-c2ccc(Cl)cc2CN1C(=O)OC1CC1 (single isomer, unassigned) [Cpd 171B] | 500 to 1000 | > 1000
4 |  |  | CC1c2nnc(C3CC4(C3)CN(c3ccc(F)cn3)C4)n2-c2ccc(Cl)cc2CN1C(=O)OC1CC1 (single isomer, unassigned) [Cpd 191A] | < 100 | > 1000
5 |  |  | COC(=O)N1Cc2cc(Cl)ccc2-n2c(C3CC4(C3)CN(c3ncc(F)cn3)C4)nnc2C1C (centres unmarked) [compound 170] | < 100 | > 1000
6 |  |  | CC1c2nnc(C3CC4(C3)CN(c3ccc(F)cn3)C4)n2-c2ccc(Cl)cc2CN1C(=O)C(C)(C)F (single isomer, unassigned) [Cpd 178A] | < 100 | > 1000
7 |  |  | CC(C)N1Cc2cc(Cl)ccc2-n2c(nnc2C2CC3(C2)CN(c2ccc(F)cn2)C3)C1 [compound 50] | < 100 | > 1000
8 |  |  | CCOC(=O)N1Cc2cc(Cl)ccc2-n2c(C3CC4(C3)CN(c3ncccn3)C4)nnc2C1C (centres unmarked) [compound 168] | < 100 | > 1000
9 |  |  | CCOC(=O)N1Cc2cc(Cl)ccc2-n2c(C3CC4(C3)CN(c3ccc(F)cn3)C4)nnc2C1C (single isomer, unassigned) [Cpd 169A] | < 100 | > 1000
10 |  |  | COCCN1Cc2cc(Cl)ccc2-n2c(nnc2C2CC3(C2)CN(c2ccccn2)C3)C1 [compound 39, 8-chloro-5-(2-methoxyethyl)-1-(2-(pyridin-2-yl)-2-azaspiro[3.3]heptan-6-yl)-5,6-dihydro-4H-benzo[f][1,2,4]triazolo[4,3-a][1,4]diazepine] | < 100 | > 1000
11 |  |  | COC(=O)N1Cc2cc(Cl)ccc2-n2c(C3CC4(C3)CN(c3cnccn3)C4)nnc2C1C (centres unmarked) [compound 165] | < 100 | > 1000
12 |  |  | CC1c2nnc(C3CC4(C3)CN(c3ncc(F)cn3)C4)n2-c2ccc(Cl)cc2CN1C(=O)OC(CF)CF (centres unmarked) [compound 194] | < 100 | > 1000
13 |  |  | CC(C)OC(=O)N1Cc2cc(Cl)ccc2-n2c(C3CC4(C3)CN(c3ccc(F)cn3)C4)nnc2C1C (single isomer, unassigned) [Cpd 163A] | < 100 | > 1000
14 |  |  | CCOC(=O)N1Cc2cc(Cl)ccc2-n2c(C3CC4(C3)CN(c3ncccn3)C4)nnc2C1C (single isomer, unassigned) [Cpd 168A] | < 100 | > 1000
15 |  |  | COC(=O)N1Cc2cc(Cl)ccc2-n2c(C3CC4(C3)CN(c3ncccn3)C4)nnc2C1C (single isomer, unassigned) [Cpd 166A] | < 100 | > 1000
16 | < 100 | > 1000 | CN1Cc2cc(Cl)ccc2-n2c(nnc2[C@H]2CC[C@H](Oc3ccccn3)CC2)C1 [balovaptan, reference compound] |  | 
17 |  |  | COC(=O)N1Cc2cc(Cl)ccc2-n2c(C3CC4(C3)CN(c3ncc(F)cn3)C4)nnc2C1C (single isomer, unassigned) [Cpd 170A] | < 100 | > 1000
18 |  |  | Clc1ccc2c(c1)CN(C1COC1)Cc1nnc(C3CC4(C3)CN(c3ccccn3)C4)n1-2 [compound 57, 8-chloro-5-(oxetan-3-yl)-1-(2-(pyridin-2-yl)-2-azaspiro[3.3]heptan-6-yl)-5,6-dihydro-4H-benzo[f][1,2,4]triazolo[4,3-a][1,4]diazepine] | < 100 | > 1000
19 |  |  | CCOC(=O)N1Cc2cc(Cl)ccc2-n2c(C3CC4(C3)CN(c3ccc(F)cn3)C4)nnc2C1C (centres unmarked) [compound 169] | < 100 | > 1000
20 |  |  | O=C(N1Cc2cc(Cl)ccc2-c2c(C3CC4(C3)CN(c3cccnn3)C4)noc2C1)C(F)(F)F [compound 105] | < 100 | > 1000

Row | IC50 ([1]; in vitro antagonist assay, reference compounds, read-out: V1A IC50) [nM] | IC50 ([2]; in vitro antagonist assay, reference compounds) [nM] | SMILES | IC50 ([1]; read-out: V1a IC50) [nM] | IC50 [2] [nM]
21 |  |  | COC(=O)N1Cc2cc(Cl)ccc2-n2c(nnc2C2CC3(C2)CN(c2ccccn2)C3)C1 [compound 70] | < 100 | > 1000
22 |  |  | CC1c2nnc(C3CC4(C3)CN(c3ncccn3)C4)n2-c2ccc(Cl)cc2CN1C(=O)OC(CF)CF (single isomer, unassigned) [Cpd 202A] | < 100 | > 1000
23 |  |  | CCC(=O)N1Cc2cc(Cl)ccc2-n2c(nnc2C2CC3(C2)CN(c2ccc(F)cn2)C3)C1 [compound 72] | < 100 | > 1000
24 |  |  | COC(=O)N1Cc2cc(Cl)ccc2-n2c(nnc2C2CC3(C2)CN(c2ccc(F)cn2)C3)C1 [compound 61] | < 100 | > 1000
25 |  |  | CCN1Cc2cc(Cl)ccc2-n2c(nnc2C2CC3(C2)CN(c2ccc(F)cn2)C3)C1 [compound 49] | < 100 | > 1000
26 |  |  | CC1c2nnc(C3CC4(C3)CN(c3ncccn3)C4)n2-c2ccc(Cl)cc2CN1C(=O)C1(F)CC1 (centres unmarked) [compound 175] | < 100 | > 1000
27 |  |  | CC1c2nnc(C3CC4(C3)CN(c3ncc(F)cn3)C4)n2-c2ccc(Cl)cc2CN1C(=O)OC1(C)CC1 (centres unmarked) [compound 173] | < 100 | > 1000
28 |  |  | COC(=O)N1Cc2cc(Cl)ccc2-n2c(C3CC4(C3)CN(c3ccc(F)cn3)C4)nnc2C1C (single isomer, unassigned) [Cpd 142B] | 500 to 1000 | > 1000
29 |  |  | CCN1Cc2cc(Cl)ccc2-n2c(nnc2C2CC3(C2)CN(c2ccccn2)C3)C1 [compound 45] | < 100 | > 1000
30 |  |  | CC1c2nnc(C3CC4(C3)CN(c3ccc(F)cn3)C4)n2-c2ccc(Cl)cc2CN1C (single isomer, unassigned) [Cpd 179A] | < 100 | > 1000
31 |  |  | CCOC(=O)N1Cc2cc(Cl)ccc2-n2c(nnc2C2CC3(C2)CN(c2ccc(F)cn2)C3)C1 [compound 69] | < 100 | > 1000
32 |  |  | CC(C)N1Cc2cc(Cl)ccc2-n2c(nnc2C2CC3(C2)CN(c2ccccn2)C3)C1 [compound 48] | < 100 | > 1000
33 |  |  | CC(C)C(=O)N1Cc2cc(Cl)ccc2-n2c(nnc2C2CC3(C2)CN(c2ccc(F)cn2)C3)C1 [compound 63] | < 100 | > 1000
34 |  |  | O=C(C1CC1)N1CC2(CC(c3nnc4n3-c3ccc(Cl)cc3CN(C(=O)C3(F)CC3)C4)C2)C1 [compound 136] | < 100 | > 1000
35 |  |  | COC(=O)N1Cc2cc(Cl)ccc2-n2c(C3CC4(C3)CN(c3ncccc3F)C4)nnc2C1C (centres unmarked) [compound 182] | < 100 | > 1000
36 |  |  | CCN1Cc2cc(Cl)ccc2-n2c(nnc2C2CC3(C2)CN(c2cnccn2)C3)C1 [compound 46] | < 100 | > 1000
37 |  |  | CC1c2nnc(C3CC4(C3)CN(c3ccccn3)C4)n2-c2ccc(Cl)cc2CN1C(=O)C1(F)CC1 (single isomer, unassigned) [Cpd 181A] | < 100 | > 1000
38 |  |  | FCCN1Cc2cc(Cl)ccc2-n2c(nnc2C2CC3(C2)CN(c2ccccn2)C3)C1 [compound 59] | < 100 | > 1000
39 |  |  | CN1Cc2cc(Cl)ccc2-n2c(nnc2C2CC3(C2)CN(C(=O)C2CC2)C3)C1 [compound 28] | < 100 | > 1000
40 |  |  | CC(C)OC(=O)N1Cc2cc(Cl)ccc2-n2c(C3CC4(C3)CN(c3cnccn3)C4)nnc2C1C (centres unmarked) [compound 164] | < 100 | > 1000
